Each structure is given as a SMILES string. Peptide text beside a SMILES is read from it. * marks the point of attachment. Cbz = O=C(OCc1ccccc1)*

Format in all cases: ADME, cell-based
Data set [1] concerns the target T1, von Hippel-Lindau disease tumor suppressor/Cytochrome P450 1B1 (Homo sapiens, UniProt Q16678+P40337). Briefly: PROTAC activity at VHL/CYP1B1 in human A549/Taxol cells assessed as degradation by measuring fold change in remaining CYP1B1 level at 1 nM incubated for 24 hrs by Western blotting analysis (reference value: 1). The conditions noted are these: 0.001 µM.

For data set [2], the target named is T1, von Hippel-Lindau disease tumor suppressor/Cytochrome P450 1B1. Description: PROTAC activity at VHL/CYP1B1 in human A549/Taxol cells assessed as reduction in CYP1B1 level at 1 nM incubated for 24 hrs by Western blotting analysis. Also on record: scale not given: the % may be the effect or the level left. The settings on record: 0.001 µM. (In general: Immunoblotting shows a protein as a band on a membrane.)

The target is the same in data set [3]. Briefly: PROTAC activity at VHL/CYP1B1 in human A549/Taxol cells assessed as degradation by measuring fold change in remaining CYP1B1 level at 1000 nM incubated for 24 hrs by Western blotting analysis (reference value: 1). The settings on record: 1 µM.
The target is the same in data set [4]. Description: PROTAC activity at VHL/CYP1B1 in human A549/Taxol cells assessed as reduction in CYP1B1 level at 1000 nM incubated for 24 hrs by Western blotting analysis. Also on record: scale not given: the % may be the effect or the level left. The settings on record: 1 µM.
Data set [5] addresses T2, Protein cereblon/Cytochrome P450 1B1 (Homo sapiens, UniProt Q16678+Q96SW2). Description: PROTAC activity at CRBN/CYP1B1 in human A549/Taxol cells assessed as degradation by measuring fold change in remaining CYP1B1 level at 1 nM incubated for 24 hrs by Western blotting analysis (reference value: 1). The conditions noted are these: 0.001 µM.
For data set [6], the target named is T2, Protein cereblon/Cytochrome P450 1B1. Description: PROTAC activity at CRBN/CYP1B1 in human A549/Taxol cells assessed as degradation by measuring fold change in remaining CYP1B1 level at 1000 nM incubated for 24 hrs by Western blotting analysis (reference value: 1). The conditions noted are these: 1 µM.
Data set [7] deals with T1, von Hippel-Lindau disease tumor suppressor/Cytochrome P450 1B1. Description: PROTAC activity at VHL/CYP1B1 in human A549/Taxol cells assessed as reduction in CYP1B1 level at 1 uM incubated for 24 hrs by Western blotting analysis.

T1 sequence (Q16678 whole entry): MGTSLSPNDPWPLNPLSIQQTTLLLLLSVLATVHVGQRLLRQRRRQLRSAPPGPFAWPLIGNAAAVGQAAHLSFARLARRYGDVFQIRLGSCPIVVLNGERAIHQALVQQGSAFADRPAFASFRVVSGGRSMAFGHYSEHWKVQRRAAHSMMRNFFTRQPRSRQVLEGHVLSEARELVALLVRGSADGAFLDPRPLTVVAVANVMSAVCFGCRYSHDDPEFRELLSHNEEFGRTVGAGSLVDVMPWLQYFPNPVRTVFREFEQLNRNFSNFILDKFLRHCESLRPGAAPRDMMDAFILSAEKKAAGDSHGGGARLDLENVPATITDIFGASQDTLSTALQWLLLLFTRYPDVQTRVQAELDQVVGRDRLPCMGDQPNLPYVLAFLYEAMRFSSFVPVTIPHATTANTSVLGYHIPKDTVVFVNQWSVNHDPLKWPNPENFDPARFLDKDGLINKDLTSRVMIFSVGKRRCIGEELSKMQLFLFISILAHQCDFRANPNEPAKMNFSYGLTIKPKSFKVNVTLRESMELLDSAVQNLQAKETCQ
T1 sequence (P40337 whole entry): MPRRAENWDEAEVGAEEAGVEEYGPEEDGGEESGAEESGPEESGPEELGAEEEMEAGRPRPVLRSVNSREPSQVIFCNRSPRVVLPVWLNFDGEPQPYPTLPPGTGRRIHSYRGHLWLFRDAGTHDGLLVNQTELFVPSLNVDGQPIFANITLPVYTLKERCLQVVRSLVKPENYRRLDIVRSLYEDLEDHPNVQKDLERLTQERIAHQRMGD
T2 sequence (Q16678 whole entry): as the sequence (Q16678 whole entry) above
T2 sequence (Q96SW2 whole entry): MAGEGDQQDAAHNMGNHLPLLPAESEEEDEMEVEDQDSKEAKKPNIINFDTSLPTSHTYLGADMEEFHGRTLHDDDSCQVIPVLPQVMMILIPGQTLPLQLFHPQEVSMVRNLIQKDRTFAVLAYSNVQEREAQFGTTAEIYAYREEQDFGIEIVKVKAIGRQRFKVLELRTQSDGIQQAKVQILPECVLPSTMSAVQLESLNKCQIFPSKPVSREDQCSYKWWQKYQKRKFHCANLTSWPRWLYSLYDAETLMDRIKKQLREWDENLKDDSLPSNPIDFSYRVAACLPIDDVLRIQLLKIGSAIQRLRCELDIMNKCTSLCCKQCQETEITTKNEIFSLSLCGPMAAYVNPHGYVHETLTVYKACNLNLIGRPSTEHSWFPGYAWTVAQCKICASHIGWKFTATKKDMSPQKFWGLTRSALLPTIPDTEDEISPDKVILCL

For `Cc1ncsc1-c1ccc([C@H](C)NC(=O)[C@@H]2C[C@@H](O)CN2C(=O)[C@@H](NC(=O)CCCCCCCOc2ccccc2-c2csc(-c3csc(Nc4ccc(Cl)cc4)n3)n2)C(C)(C)C)cc1`, the “fold change (FC)” value in data set [1] stood at 0.4; in data set [3], 0.2. Moreover, the values for the Activity in data set [2] and in data set [4] were 60% and above 70%, respectively.

For `Cc1ncsc1-c1ccc([C@H](C)NC(=O)[C@@H]2C[C@@H](O)CN2C(=O)[C@@H](NC(=O)Cn2cc(COCCOCCOc3ccccc3-c3csc(-c4csc(Nc5ccc(Cl)cc5)n4)n3)nn2)C(C)(C)C)cc1`, the entries for the “fold change (FC)” value in data set [1] and in data set [3] were 1.1 and 1.3, respectively.

Consider `Cc1ncsc1-c1ccc([C@H](C)NC(=O)[C@@H]2C[C@@H](O)CN2C(=O)[C@@H](NC(=O)CCCCCCCCCOc2ccccc2-c2csc(-c3csc(Nc4ccc(Cl)cc4)n3)n2)C(C)(C)C)cc1`, for which the “fold change (FC)” value in data set [1] and in data set [3] was 1.5 each time.

Take `O=C1CCC(N2Cc3c(NC(=O)CCCCCCCCCC(=O)Nc4ccc(-c5csc(-c6csc(Nc7ccc(Cl)cc7)n6)n5)cc4)cccc3C2=O)C(=O)N1` (stereo not drawn): the “fold change (FC)” value in data set [5] is given as 1.1; in data set [6], 1.3.

Turning to `O=C1CCC(N2C(=O)c3cccc(NC(=O)CN4CCN(CCCCCCCCCCCC(=O)Nc5ccc(-c6csc(-c7csc(Nc8ccc(Cl)cc8)n7)n6)cc5)CC4)c3C2=O)C(=O)N1` (stereo not drawn), the entries for the “fold change (FC)” value in data set [5] and in data set [6] were 1.5 and 1.1, respectively.

Consider `Cc1ncsc1-c1ccc([C@H](C)NC(=O)[C@@H]2C[C@@H](O)CN2C(=O)[C@@H](NC(=O)CCCCCOc2ccccc2-c2csc(-c3csc(Nc4ccc(Cl)cc4)n3)n2)C(C)(C)C)cc1`, for which the “fold change (FC)” value in data set [1] was 0.5; in data set [3], 1.5.

In the case of `Cc1ncsc1-c1ccc([C@H](C)NC(=O)[C@@H]2C[C@@H](O)CN2C(=O)[C@@H](NC(=O)CCCCCCCCCCCOc2ccccc2-c2csc(-c3csc(Nc4ccc(Cl)cc4)n3)n2)C(C)(C)C)cc1`, the “fold change (FC)” value in data set [1] stood at 0.9; in data set [3] it was 2.

As to `CC(C)C[C@@H](C=O)NC(=O)[C@H](CC(C)C)NC(=O)[C@H](CC(C)C)NC(=O)OCc1ccccc1` [MG-132] (Cbz-Leu-Leu-Leu-aldehyde), the Activity result in data set [7] was “Not Active”.

Turning to `O=C1CCC(N2C(=O)c3cccc(NC(=O)CN4CCN(CCCCCCCCCCC(=O)Nc5ccc(-c6csc(-c7csc(Nc8ccc(Cl)cc8)n7)n6)cc5)CC4)c3C2=O)C(=O)N1` (stereo not drawn), the “fold change (FC)” value turned out to be 1.2 in data set [5] and 1.5 in data set [6].

In the case of `O=C1CCC(N2C(=O)c3cccc(NC(=O)CN4CCN(CCCCCCCCC(=O)Nc5ccc(-c6csc(-c7csc(Nc8ccc(Cl)cc8)n7)n6)cc5)CC4)c3C2=O)C(=O)N1` (stereo not drawn), the “fold change (FC)” value is given as 1 in data set [5] and 1.6 in data set [6].

For the compound `Cc1ncsc1-c1ccc([C@H](C)NC(=O)[C@@H]2C[C@@H](O)CN2C(=O)[C@@H](NC(=O)Cn2cc(CCCCCOc3ccccc3-c3csc(-c4csc(Nc5ccc(Cl)cc5)n4)n3)nn2)C(C)(C)C)cc1`, the “fold change (FC)” value in data set [1] was found to be 1.1; in data set [3], 0.9.

In the case of `O=C1CCC(N2C(=O)c3cccc(NC(=O)CN4CCN(CCCCCCC(=O)Nc5ccc(-c6csc(-c7csc(Nc8ccc(Cl)cc8)n7)n6)cc5)CC4)c3C2=O)C(=O)N1` (stereo not drawn), the results for the “fold change (FC)” value in data set [5] and in data set [6] were 0.8 and 0.9, respectively.

`O=C1CCC(N2Cc3c(NC(=O)CCCCCCCCCCCC(=O)Nc4ccc(-c5csc(-c6csc(Nc7ccc(Cl)cc7)n6)n5)cc4)cccc3C2=O)C(=O)N1` (stereo not drawn): the “fold change (FC)” value in data set [5] is reported as 0.7; in data set [6], 1.

As to `Cc1ncsc1-c1ccc([C@H](C)NC(=O)[C@@H]2C[C@@H](O)CN2C(=O)[C@@H](NC(=O)CCCCCCCCOc2ccccc2-c2csc(-c3csc(Nc4ccc(Cl)cc4)n3)n2)C(C)(C)C)cc1`, the “fold change (FC)” value amounted to 0.7 in data set [1] and 0.6 in data set [3].

With `O=C1CCC(N2Cc3c(NC(=O)CCCCCCCC(=O)Nc4ccc(-c5csc(-c6csc(Nc7ccc(Cl)cc7)n6)n5)cc4)cccc3C2=O)C(=O)N1` (stereo not drawn), the “fold change (FC)” value in data set [5] worked out at 0.8; in data set [6], 1.

Take `O=C1CCC(N2Cc3c(NC(=O)CCCCCC(=O)Nc4ccc(-c5csc(-c6csc(Nc7ccc(Cl)cc7)n6)n5)cc4)cccc3C2=O)C(=O)N1` (stereo not drawn): the entries for the “fold change (FC)” value in data set [5] and in data set [6] were 1.1 and 1, respectively.

With `O=C1CCC(N2C(=O)c3cccc(NC(=O)CN4CCN(CCCCCC(=O)Nc5ccc(-c6csc(-c7csc(Nc8ccc(Cl)cc8)n7)n6)cc5)CC4)c3C2=O)C(=O)N1` (stereo not drawn), the “fold change (FC)” value in data set [5] is given as 1; in data set [6], 1.2.

In the case of `O=C1CCC(N2Cc3c(NC(=O)CCCCCCCCCCCCCC(=O)Nc4ccc(-c5csc(-c6csc(Nc7ccc(Cl)cc7)n6)n5)cc4)cccc3C2=O)C(=O)N1` (stereo not drawn), the “fold change (FC)” value in data set [5] turned out to be 0.9; in data set [6], 1.

For `Cc1ncsc1-c1ccc([C@H](C)NC(=O)[C@@H]2C[C@@H](O)CN2C(=O)[C@@H](NC(=O)CCCCCCCCCCOc2ccccc2-c2csc(-c3csc(Nc4ccc(Cl)cc4)n3)n2)C(C)(C)C)cc1`, the results for the “fold change (FC)” value in data set [1] and in data set [3] were 1.7 and 1.8, respectively.

With `O=C1CCC(N2C(=O)c3cccc(NC(=O)CN4CCN(CCCCCCCCCC(=O)Nc5ccc(-c6csc(-c7csc(Nc8ccc(Cl)cc8)n7)n6)cc5)CC4)c3C2=O)C(=O)N1` (stereo not drawn), the figures for the “fold change (FC)” value in data set [5] and in data set [6] were 0.8 and 1.2, respectively.

`O=C1CCC(N2C(=O)c3cccc(NC(=O)CN4CCN(CCCCCCCC(=O)Nc5ccc(-c6csc(-c7csc(Nc8ccc(Cl)cc8)n7)n6)cc5)CC4)c3C2=O)C(=O)N1` (stereo not drawn): the “fold change (FC)” value was 0.7 in data set [5] and 1 in data set [6].

The values above are taken from ChEMBL document CHEMBL5523713, “Development of novel N-aryl-2,4-bithiazole-2-amine-based CYP1B1 degraders for reversing drug resistance” (Eur J Med Chem, 2024).
